# B1: 52SR4: high affinity anti-GCN4 (7P14P) scFv used as sCAR extracellular domain (protein)
# scFv: DAVVTQESALTSSPGETVTLTCRSSTGAVTTSNYASWVQEKPDHLFTGLIGGTNNRAPGVPARFSGSLIGDKAALTITGAQTEDEAIYFCVLWYSDHWVFGGGTKLTVLGGGGGSGGGGSGGGGSGGGGSDVQLQESGPGLVAPSQSLSITCTVSGFLLTDYGVNWVRQSPGKGLEWLGVIWGDGITDYNSALKSRLSVTKDNSKSQVFLKMNSLQSGDSARYYCVTGLFDYWGQGTTLTVSS
# Key:
# Nalm-6^Luc/GFP cells [1] = experiment: Nalm-6 Luc/GFP leukemia xenograft; type: in vivo; conditions: for tumor burden (IVIS): 0.5 mg/kg I.V. every other day for 10 days
# Procedure: NSG mice were inoculated with CD19^+ Nalm-6^GFP/Luc cells. Six days later, 40×10^6 sCAR-T cells were delivered IV and switch dosing commenced every other day at 0.5 mg/kg for 10 days. Tumor burden was followed by luminescence after injection of luciferin and imaged on an in vivo imaging system (IVIS; PerkinElmer, Waltham, Mass., USA).
# Asterisks indicate significance from LCNT Fab group. Data are represented as means±SEM, and statistical significance was calculated using the 2-way ANOVA with Bonferroni's post-test (B & E; shown for final time-point only) or by one-tailed student's t-test (C & F) where *=p<0.05, **=p<0.01 and ***=p<0.001.
# NSG mice were inoculated with Nalm-6^GFP/Luc as described in FIG. 28. […] A fourth group consisted of two cohorts (n=3) of mice injected I.V. with sCAR-T cells without (−) LCNT Fab switch. LCNT Fab dosing in the indicated group was carried out daily at 0.5 mg/kg after the initial T cell infusion. Luminescence was measured at 6 h and subsequently every 24 h as indicated. Cohorts were sacrificed for analysis immediately following IVIS imaging. […] Gray lines indicate tumor burden in PBS and sCAR-T cell—LCNT Fab controls. […] Data are represented as means±SEM, and statistical significance was calculated using the one-tailed student's t-test (C & D) where *=p<0.05, **=p<0.01 and ***=p<0.001.
# NSG mice were inoculated with Nalm6^GFP/Luc and six days later engrafted with short-dimeric sCAR-T cells as described in FIG. 29. […] Dosing was carried out for 15 d starting at day 6 (corresponding with sCAR-T cell infusion) as indicated by gray shading. Control groups CART-19 and PBS received no switch. The NS group received sCAR-T cells but no switch. Open circles denote the death of individual mice without evidence of tumor burden and may reflect GVHD. Triangles in PBS, NS and q.a.d. group indicate death due to increasing tumor burden. […] (19) indicates CART-19. […] (19) indicates CART-19. […] Triangles indicate the death of individual mice with significant tumor burden. The single mouse death in the 0.05 mg/kg group occurred while tumor burden was decreasing. […] Statistical significance was calculated using the one-tailed student's t-test (B, C & E) where *=p<0.05, **=p<0.01 and ***=p<0.001.
# The different sCAR designs were tested in a xenograft model harboring luciferized NALM-6 (CD19+, CD80−, CD86−) cells. 1 mg/kg monovalent switch “A” was administered along with sCAR cells. […] Optimized hinge improved response. Short hinge CARs have faster clearance. Short, dimeric hinge CARs have improved persistence. Tumor burden was visualized with IVIS imaging. Experiments are repeated with a humanized scFv and bivalent switches.
# Activity of the switchable CAR-T cell platform in vivo was evaluated via tumor regression in a Nalm-6^Luc/GFP leukemia xenograft model in immunodeficient NOD scid gamma (NSG) mice. These mice without treatment succumb to disease within 21 days. The impact of CAR hinge design on in vivo efficacy was determined using mice inoculated with Nalm-6^Luc/GFP, followed by I.V. injection of long, short, or short-dimeric sCAR-T cells 6 days later. The LCNT Fab was dosed I.V. (0.5 mg/kg) every other day for 10 days and tumor regression was followed by in vivo imaging (IVIS) of the luciferase signal from Nalm-6^Luc/GFP cells (FIG. 29A).
# The effect of switch grafting position on the control of tumor burden was determined. As with the previous model, short-dimeric CAR-T cells were injected 6 days after tumor inoculation and mice were treated every other day (starting at day 6) with 0.5 mg/kg LCNT, HCNT, NTBV, LCC1, or HCCT Fab switches (FIG. 29D).
# To determine the proliferation and localization of sCAR-T cell cytotoxicity during this time interval, mice were sorted into 5 cohorts per treatment regimen and analyzed at 8, 24, 48, 72, and 96 h after treatment with short-dimeric sCAR-T cells+LCNT Fab switch or with conventional CART-19 and no switch. […]
# Nalm-6^Luc/GFP cells [2] = experiment: Nalm-6 Luc/GFP leukemia xenograft; type: in vivo
# RS4;11 (CD19 positive) = type: cell-based, human
# Procedure: Activity was assessed against NALM-6 (CD19^+), RS4;11 (CD19^+), or RPMI-8226 (CD19^−) (Table 2). The activity of the IgG (FcNull) switch was assessed against RS4;11 (CD19^+), or K562 (CD19^−) (Table 2). The activity of the C-terminal switch was assessed against RS4;11 (CD19^+), or K562 (CD19^−) (Table 4).
# sCAR-T cells were co-cultured (96-well plate round bottom; 20-24h; 37° C.; 5% CO2) with RS4;11 (CD19^+) or K562 (CD19^−) cells at a ratio of 10 sCAR-T cells to 1 RS4;11/K562 cell (110,000 cells in total) in 100 uL of RPMI-1640 supplemented with 5% heat inactivated fetal calf serum (Thermo), 1% penicillin-streptomycin (Gibco), 1% L-Glutamine (Gibco), 1 mM sodium pyruvate (Gibco) and 1% non-essential amino acids (Gibco). After 24 hours, each plate was centrifuged at 400×g for 5 minutes at 4° C. To measure target cell lysis, the intracellular protein lactate dehydrogenase (LDH) was measured in the cytotoxicity assay supernatants from the co-cultured cells using the CytoTox 96® Non-Radioactive Cytotoxicity Assay kit (Promega). To measure the effector responses of the sCART cells in vitro, cytokine levels were measured in the cytotoxicity assay supernatants using the Cytometric Bead Array (CBA) Human Th1/Th2 Cytokine Kit II (BD). […]
# The GCN4 CAR design was therefore modified to contain the CD8 hinge region (used in CART-19), which has an extracellular CAR domain of approximately 80 Å, and an IgG4 hinge with an extracellular CAR domain of approximately 15-30 Å. An additional construct was developed where a mutation was introduced into the IgG4 hinge that allows for spontaneous disulphide bridge formation between receptor molecules (IgG4m). […] Briefly, activated PBMC were transduced with lentivirus (SEQ ID: 1) containing the anti-PNE CAR construct (SEQ ID: 180) with the CD8 (SEQ ID: 68), IgG4 (SEQ ID: 70) and IgG4m (SEQ ID: 71) hinge domains.
# Monovalent and bivalent combinations of these switches were expressed in mammalian protein expression systems (HEK293 or CHO cells) and purified using protein-G columns. Switches were used in cytotoxicity assays at a dose titration within the range of 10 nM to 0.0001 nM. The activity of each switch combination was tested in vitro in the General cytotoxicity assays where LDH release, cytokine production and sCART cell activation were compared (FIGS. 11A-11C).
# CAR-T or target cells were incubated with 1 pM to […] of switch in FACS buffer (PBS, 1% FCS, 2 mM EDTA) for 30 minutes at 4° C. before being washed twice and then incubated with the PE-conjugated goat-anti-human kappa antibody (1:100). Cells were washed two times and analyzed using the Accuri flow cytometer (BD). CAR-T cell activity was determined using the CytoTox 96® Non-Radioactive Cytotoxicity Assay (Promega). CAR-T cells were incubated with target cells in the presence of switch for 20-24 hours at 37° C. in complete RPMI with 5% FCS. At the end of the assay, 30 μL of cell free supernatant was added to 30 μL of the LDH assay reagent in a 96-well plate and incubated for 30 minutes at room temperature in the dark; 30 μL of stop solution was added before the plate was read at OD495.
# RS4;11 cells = experiment: Inhibition of sCAR-T cell activity by free PNE peptide; type: cell-based; conditions: excess soluble peptide with LCNT switch
# Excerpt: The non-binding mutated version of the PNE (PNE-X; bar farthest to the right) was, again, used as a control. […] Alanine mutated free peptide (PepX) has no effect. Only the cognate free peptide epitope inhibits cytotoxicity (see FIGS. 26D-F). FIG. 26E-F show live cell imaging (Incucyte, Essen).
# Specificity of sCAR-T cell activation is essential to switch-based control.
# One of the great advantages of the sCART cell system is that the activity can be controlled. This can be achieved by either dose escalation of the switches or by stopping switch dosing. In the event that the cessation of switch dosing is not an acute enough response to halt sCART cell activity, immunological synapses are disrupted by the administration of free peptide.
# Specificity of sCAR-T cell activation is a critical design consideration for switch-based control.
# GCN4 epitope (7P14P) = GCN4 epitope (7P14P) (Saccharomyces cerevisiae, UniProt P03069); conditions: GCN4 epitope (7P14P) NYHLENEVARLKKL; read-out: dissociation constant (Kd); cited from earlier work
# [3] = retreatment 0.5 mg/kg for 10 days
molecule,measurement,setting,value
"anti-CD19 Fab LCNT: FMC63 anti-CD19 Fab, GCN4 peptide on N-terminus of light chain (SEQ ID 36 & 29)","serum IL-2, INFγ, TNFα at 24 h vs CART-19",Nalm-6^Luc/GFP cells [1]; 0.05 mg/kg every day,significantly lower than CART-19
same,duration of sustained tumor regression after dosing had stopped,Nalm-6^Luc/GFP cells [1]; 0.5 mg/kg every day or every other day for 15 days,> 100 days
same,"T cell phenotype in peripheral blood (CD45RA, CD62L)","Nalm-6^Luc/GFP cells [1]; 0.05 and 0.5 mg/kg, vs […] group",significantly larger populations of CD45RA^−CD62L^+ central memory cells
same,T cell counts in peripheral blood,"Nalm-6^Luc/GFP cells [1]; day 17, short-dimeric sCAR-T cells, 0.5 mg/kg every other day",greatest T cell expansion
same,tumor burden (IVIS),Nalm-6^Luc/GFP cells [1]; long hinge (CD8) sCAR-T cells,minimal impact on disease
same,time to decrease tumor signal to levels equivalent to CART-19,Nalm-6^Luc/GFP cells [1]; [3],≤ 5 days
same,tumor-free time after final dose of second dosing period,Nalm-6^Luc/GFP cells [1]; [3],> 35 days
same,time of peak human IL-2 in peripheral blood,"Nalm-6^Luc/GFP cells [1]; sCAR-T + daily 0.5 mg/kg LCNT Fab, or CART-19 without switch",48 h
same,tumor burden (IVIS),Nalm-6^Luc/GFP cells [1]; short (IgG4) sCAR-T cells,significant decrease in tumor burden
same,tumor burden (IVIS),Nalm-6^Luc/GFP cells [1]; short-dimeric (IgG4m) sCAR-T cells,significant decrease in tumor burden
same,"tumor burden (IVIS), switch graft position comparison","Nalm-6^Luc/GFP cells [1]; short-dimeric sCAR-T cells, 0.5 mg/kg every other day from day 6",greatest reduction in tumor burden
same,time to limit of luminescence detection,"Nalm-6^Luc/GFP cells [1]; short-dimeric sCAR-T cells, daily 0.5 mg/kg",≤ 96 h
same,day on which tumor burden reached the limit of detection,Nalm-6^Luc/GFP cells [2]; 0.05 mg/kg every day for 10 d,≤ 16 days
same,day of tumor relapse,Nalm-6^Luc/GFP cells [2]; after 0.05 mg/kg every day for 10 d,30 days
same,EC50,RS4;11 (CD19 positive),0.9 pM
same,increase in potency of cytotoxicity,RS4;11 (CD19 positive),2.8 fold
same,increase in maximum target cell lysis,RS4;11 (CD19 positive); short-dimeric sCAR vs CD8-based long hinge,> 80%
NYHLENEVARLKKL (CAR binding region - yeast transcription factor GCN4) [PNE],effect of free peptide on sCAR-T cell activity,RS4;11 cells,fully inhibited
B1,Kd,GCN4 epitope (7P14P),5.2 pM

# — patent US11091546B2, “Optimized PNE-based chimeric receptor T cell switches and uses thereof” (The Scripps Research Institute, priority 2015, dated 2021)
